Test results as given in patent US9125937B2, “Labelled analogues of halobenzamides as multimodal radiopharmaceuticals and their precursors” (INSTITUT NATIONAL DE LA SANTE ET DE LA RECHERCHE MEDICALE …, priority 2008, dated 2015).
Where a name gives a salt, the structure may show the parent alone.

Tested on: B16 F0 murine melanoma
Experiment: Biodistribution study by planar scintigraphic imaging (gamma camera), tumour uptake quantification
Type: in vivo, C57BL6 male mice
Conditions: i.v.
Description: Tumour Implantation. For transplantation, cells grown in monolayer culture to confluence were trypsinized and washed with phosphate buffer saline (PBS). They were resuspended in PBS and each mouse received 0.1 mL subcutaneously (3×10^5 cells) on the left flank in order to allow a tumour growth on the body side. Ten days later, the tumours became palpable with a percentage of tumour take of 98-100%.
The in vivo biodistribution and kinetic profile of each radiolabelled (iodine-125) compound have been studied in C57BL6 male mice bearing the B16 F0 murine melanoma by repeated planar scintigraphic imaging which allows the tumour uptake follow-up in the same animal.
Gamma Camera. In vivo radionuclide imaging was performed using a γ IMAGER (Biospace Mesures, Paris, France) especially dedicated for small animal, a scintigraphic camera with a continuous 4 mm thick×120 mm diameter CsI(Na) crystal, a position-sensitive Hamamatsu R3292 photomultiplier and a 10 cm field of view.
Imaging Protocol. On day 14 after tumour implantation (tumour weight 0.25±0.10 g) each [^125I]-radioiodinated compound was administered intravenously via a tail vein (0.1 μmol, range 3.7 to 7 MBq/animal) in three mice for each compound. At different times after administration (1, 3, 6, 24, 72 hours, 5, 7, 10 and 15 days), mice were anesthetized with 0.2 mL, for a 20 g mouse, of a ketamine-xylazine mixture in saline (1-0.25 mL for 5 mL) by i. p. administration, and repeated planar scintigraphic whole body imaging (mouse laying in anterior position on the camera field) were performed by an acquisition time of 10 min. For this study, the camera was equipped with a 1.8/0.2/20 collimator (hole diameter/septum thickness/height in mm).
Tumoural Radioactivity Quantification Approach. The injected activity to each mouse was determined from scintigraphic imaging of the syringe before and after the injection using the γ-IMAGER.
Regions of interest (ROIs) were delineated over the whole body image: whole body uptake area (or the various fixing areas, eyes, thyroid and abdomen) and one for the tumour uptake area. In the various ROIs, the activity (cpm) was quantified using the Biospace measures γ VISION+software. These values were normalized to the injected dose. For the tumour, the activity was also normalized to the tumour weight. Firstly, the volume was calculated from the two dimensions caliper measurement (Bissery, M. C.; Guenard, D.; Gueritte-Voegelin, F.; Lavelle, F. Experimental antitumour activity of taxotere (RP 56976, NSC 628503) a taxol analogue. Cancer res. 1991, 51, 4845-4852). Secondly, the weight was determined from the volume value corrected by a factor determined from a large panel of experiments (Weight g=volume mm^3×0.6). The data were expressed as % ID/g of B 16F0 melanoma tumour.

SMILES	Radioactive concentration in tumour (tumoural uptake) (1 H post injection)	Radioactive concentration in tumour (tumoural uptake) (6 H post injection)	Radioactive concentration in tumour (tumoural uptake) (24 H post injection)	Radioactive concentration in tumour (tumoural uptake) (72 H post injection)	Radioactive concentration in tumour (tumoural uptake) (120 H post injection)	Radioactive concentration in tumour (tumoural uptake) (168 H post injection)	Radioactive concentration in tumour (tumoural uptake) (240 H post injection)	Radioactive concentration in tumour (tumoural uptake) (360 H (15 days) post injection)	Radioactive concentration in tumour (tumoural uptake) (3 H post injection)
CCN(CCNC(=O)c1cnc2cc([125I])ccc2n1)CCOc1cccnc1F [[^125I]11, [^125I]N-[2-[N-ethyl-N-[2-(2-fluoropyridin-3-yloxy)ethyl]amino]ethyl]-6-iodoquinoxaline-2-carboxamide dihydrochloride salt]	12.7 ± 2.3 % ID/g	18.8 ± 1.6 % ID/g	18.2 ± 0.6 % ID/g	10.3 ± 1.7 % ID/g	5.2 ± 1.2 % ID/g	3.2 ± 0.4 % ID/g	1.7 ± 0.4 % ID/g	0.6 ± 0.3 % ID/g	–
CCN(CCNC(=O)c1cnc2cc([125I])ccc2n1)CCNc1cccc(F)n1 [[^125I]17, [^125I]N-[2-[N-ethyl-N-[2-[(6-fluoropyridin-2-yl)amino]ethyl]amino]ethyl]-6-iodoquinoxaline-2-carboxamide dihydrochloride salt]	13.1 ± 6.8 % ID/g	12.5 ± 3.9 % ID/g	8.6 ± 0.9 % ID/g	5.7 ± 1.5 % ID/g	2.6 ± 0.4 % ID/g	1.5 ± 0.2 % ID/g	0.8 ± 0.1 % ID/g	0.4 ± 0.2 % ID/g	13.7 ± 6.1 % ID/g
CCN(CCF)CCNC(=O)c1cnc2cc([125I])ccc2n1 [[^125I]26, [^125I]N-[2-[[N-ethyl-N-(2-fluoroethyl)]amino]ethyl]-6-iodoquinoxaline-2-carboxamide dihydrochloride salt]	21.4 ± 4.9 % ID/g	25.0 ± 8.0 % ID/g	24.8 ± 6.5 % ID/g	–	8.4 % ID/g	–	1.6 % ID/g	0.6 % ID/g	–
CCN(CCNC(=O)c1cnc2cc([125I])ccc2n1)Cc1ccnc(F)c1.Cl.Cl [[^125I]34]	10.3 ± 6.6 % ID/g	15.4 ± 6.7 % ID/g	16.0 ± 7.4 % ID/g	10.0 ± 2.6 % ID/g	7.1 ± 1.8 % ID/g	–	1.9 ± 0.9 % ID/g	0.8 ± 0.5 % ID/g	12.0 ± 4.8 % ID/g
CCN(CCNC(=O)c1ccnc(F)c1)CCNC(=O)c1cnc2cc([125I])ccc2n1.Cl.Cl [[^125I]40]	9.6 ± 0.7 % ID/g	12.1 ± 3.2 % ID/g	12.1 ± 4.6 % ID/g	9.6 ± 7.1 % ID/g	5.1 ± 3.3 % ID/g	–	–	–	8.8 ± 1.6 % ID/g
CCN(CCNC(=O)c1cnc2cc([125I])ccc2n1)CCc1ccnc(F)c1.Cl.Cl [[^125I]47]	12.1 ± 4.1 % ID/g	14.5 ± 6.6 % ID/g	11.2 ± 2.5 % ID/g	7.7 ± 0.9 % ID/g	5.2 ± 1.7 % ID/g	3.0 ± 1.0 % ID/g	1.6 ± 0.5 % ID/g	1.1 ± 0.3 % ID/g	13.3 ± 6.0 % ID/g
CCN(CCCc1ccnc(F)c1)CCNC(=O)c1cnc2cc([125I])ccc2n1.Cl.Cl [[^125I]53]	9.1 ± 1.8 % ID/g	14.1 ± 3.9 % ID/g	16.3 ± 8.9 % ID/g	9.5 ± 5.9 % ID/g	5.1 ± 3.3 % ID/g	2.5 ± 2.1 % ID/g	1.4 ± 1.0 % ID/g	0.7 ± 0.5 % ID/g	9.3 ± 0.6 % ID/g
CCN(C/C=C/CF)CCNC(=O)c1cnc2cc([125I])ccc2n1.Cl.Cl [[^125I]57]	10.8 ± 2.3 % ID/g	13.9 ± 1.3 % ID/g	15.0 ± 0.5 % ID/g	10.0 ± 0.9 % ID/g	5.6 ± 1.0 % ID/g	3.3 ± 0.6 % ID/g	1.9 ± 0.3 % ID/g	1.3 ± 0.6 % ID/g	12.3 ± 2.8 % ID/g
CCN(CCNC(=O)c1ccc2cncc([125I])c2n1)CCOc1cccnc1F.Cl.Cl [[^125I]74]	5.6 ± 1.7 % ID/g	5.3 ± 2.4 % ID/g	5.2 ± 2.0 % ID/g	3.3 ± 2.0 % ID/g	1.6 ± 0.7 % ID/g	1.1 ± 0.5 % ID/g	0.5 ± 0.3 % ID/g	0.4 ± 0.3 % ID/g	5.5 ± 2.4 % ID/g
CCN(CCNC(=O)c1cccc2nc3cc([125I])ccc3nc12)CCOc1cccnc1F.Cl.Cl [[^125I]85]	11.4 ± 1.7 % ID/g	13.8 ± 2.5 % ID/g	13.8 ± 2.3 % ID/g	5.8 ± 0.2 % ID/g	3.7 ± 0.6 % ID/g	2.0 ± 0.9 % ID/g	1.2 ± 0.5 % ID/g	0.7 ± 0.4 % ID/g	12.3 ± 1.7 % ID/g
CCN(CC)Cc1ccnc(F)c1CNC(=O)c1cnc2cc([125I])ccc2n1.Cl.Cl [[^125I]92]	5.6 ± 2.0 % ID/g	6.7 ± 1.9 % ID/g	6.4 ± 1.8 % ID/g	4.1 ± 1.5 % ID/g	2.4 ± 0.7 % ID/g	1.5 ± 0.4 % ID/g	0.8 ± 0.3 % ID/g	0.7 ± 0.1 % ID/g	6.5 ± 3.2 % ID/g
